“Also recorded” adds a separate entry of the source.
Columns and labels:
[1] = tested on: SPM formation in human peripheral blood; assay: Human whole blood incubation with MTX, plasma SPM by LC-MS/MS lipid mediator profiling; assay type: cell-based; conditions: MTX 100 nM, 37° C., 45 min
Method: Plasma was obtained by centrifugation and peripheral blood SPM concentrations were determined using LC-MS/MS based lipid mediator profiling. (A) OPLS-DA analysis of plasma SPM concentrations. Colored spherical areas display 95% confidence region of respective incubations. […] Results for A, B are representative of n=6 donors from three distinct experiments. […] Blood was then collected after 1 hour and SPM concentrations were determined using LC-MS/MS based lipid mediator profiling (D) oPLS-DA analysis of plasma SPM concentrations. Colored areas display 95% confidence region of respective incubations. […] Results are representative of n=4 mice per group and experiments were conducted on two distinct occasions.
Incubations were quenched and SPM were identified and quantified using LC-MS/MS-based lipid mediator profiling. Results are mean±SEM. n=6 volunteers per group.
Plasma was obtained from peripheral blood of healthy volunteers, patients and mouse following centrifugation at 1500×g for 10 min at room temperature. Paws were collected and immediately transferred to liquid nitrogen prior to homogenization in 1 ml ice cold MeOH and homogenized using a glass dounce. All samples for LC-MS/MS-based profiling were extracted using solid-phase extraction columns as in Walker, M. E., Souza, P. R., Colas, R. A. & Dalli, J. “13-Series resolvins mediate the leukocyte-platelet actions of atorvastatin and pravastatin in inflammatory arthritis.” FASEB J 31, 3636-3648 (2017), the contents of which are incorporated herein by reference. Prior to sample extraction, deuterated internal standards, representing each region in the chromatographic analysis (500 pg each) were added to facilitate quantification. Samples were kept at −20° C. for a minimum of 45 min to allow protein precipitation. Supernatants were subjected to solid phase extraction, methyl formate fraction collected, brought to dryness and suspended in phase (methanol/water, 1:1, vol/vol) for injection on a Shimadzu LC-20AD HPLC and a Shimadzu SIL-20AC autoinjector, paired with a QTrap 5500 or QTrap 6500 plus (Sciex). An Agilent Poroshell 120 EC-C18 column (100 mm×4.6 mm×2.7 μm) was kept at 50° C. and mediators eluted using a mobile phase consisting of methanol/water/acetic acid of 20:80:0.01 (vol/vol/vol) that was ramped to 50:50:0.01 (vol/vol/vol) over 0.5 min and then to 80:20:0.01 (vol/vol/vol) from 2 min to 11 min, maintained till 14.5 min and then rapidly ramped to 98:2:0.01 (vol/vol/vol) for the next 0.1 min. This was subsequently maintained at 98:2:0.01 (vol/vol/vol) for 5.4 min, and the flow rate was maintained at 0.5 ml/min. QTrap 5500 or QTrap 6500 plus were operated using a multiple reaction monitoring method as in Walker, M. E., Souza, P. R., Colas, R. A. & Dalli, J. “13-Series resolvins mediate the leukocyte-platelet actions of atorvastatin and pravastatin in inflammatory arthritis.” FASEB J 31, 3636-3648 (2017), the contents of which are incorporated herein by reference. Each lipid mediator was identified using established criteria including matching retention time to synthetic or authentic standards and at least 6 diagnostic ions (Walker, M. E., Souza, P. R., Colas, R. A. & Dalli, J. “13-Series resolvins mediate the leukocyte-platelet actions of atorvastatin and pravastatin in inflammatory arthritis.” FASEB J 31, 3636-3648 (2017), the contents of which are incorporated herein by reference).

[2] = tested on: inflammatory arthritis in Alox15-/- mice; assay: K/BxN serum inflammatory arthritis in Alox15-/- mice treated with MTX; assay type: in vivo
Method: Inflammatory arthritis was initiated in wild type (WT) and Alox15^−/− deficient mice by the administration of arthritogenic serum on days 0 and 2. […] Disease severity was assessed by measuring (A) disease activity using a 26-point clinical score (B) body weight and (C) paw edema. (D) Eight days post disease initiation joints were collected, leukocytes were liberated and the number of infiltrated leukocytes was determined using flow cytometry and fluorescently labelled antibodies. Results for A-C are mean±SEM and for D are percentage of vehicle n=7 mice per group. Results for D are representative of n=8 mice per group. Experiments were conducted on two distinct occasions. * p<0.05 vs Vehicle group for A-C using two-way ANOVA, for D using one-sample t test.
Inflammatory arthritis was initiated in wild type (WT) and Alox15^−/− mice by injecting K/BxN serum via intraperitoneal injection on days 0 and 2. […] Blood and joints were collected on day 8 and the concentrations of inflammatory eicosanoids in (A) plasma and (B) joints were determined using LC-MS/MS profiling.
Plasma was obtained from peripheral blood of healthy volunteers, patients and mouse following centrifugation at 1500×g for 10 min at room temperature. Paws were collected and immediately transferred to liquid nitrogen prior to homogenization in 1 ml ice cold MeOH and homogenized using a glass dounce. All samples for LC-MS/MS-based profiling were extracted using solid-phase extraction columns as in Walker, M. E., Souza, P. R., Colas, R. A. & Dalli, J. “13-Series resolvins mediate the leukocyte-platelet actions of atorvastatin and pravastatin in inflammatory arthritis.” FASEB J 31, 3636-3648 (2017), the contents of which are incorporated herein by reference. Prior to sample extraction, deuterated internal standards, representing each region in the chromatographic analysis (500 pg each) were added to facilitate quantification. Samples were kept at −20° C. for a minimum of 45 min to allow protein precipitation. Supernatants were subjected to solid phase extraction, methyl formate fraction collected, brought to dryness and suspended in phase (methanol/water, 1:1, vol/vol) for injection on a Shimadzu LC-20AD HPLC and a Shimadzu SIL-20AC autoinjector, paired with a QTrap 5500 or QTrap 6500 plus (Sciex). An Agilent Poroshell 120 EC-C18 column (100 mm×4.6 mm×2.7 μm) was kept at 50° C. and mediators eluted using a mobile phase consisting of methanol/water/acetic acid of 20:80:0.01 (vol/vol/vol) that was ramped to 50:50:0.01 (vol/vol/vol) over 0.5 min and then to 80:20:0.01 (vol/vol/vol) from 2 min to 11 min, maintained till 14.5 min and then rapidly ramped to 98:2:0.01 (vol/vol/vol) for the next 0.1 min. This was subsequently maintained at 98:2:0.01 (vol/vol/vol) for 5.4 min, and the flow rate was maintained at 0.5 ml/min. QTrap 5500 or QTrap 6500 plus were operated using a multiple reaction monitoring method as in Walker, M. E., Souza, P. R., Colas, R. A. & Dalli, J. “13-Series resolvins mediate the leukocyte-platelet actions of atorvastatin and pravastatin in inflammatory arthritis.” FASEB J 31, 3636-3648 (2017), the contents of which are incorporated herein by reference. […]

[3] = Alox15-/- mice, MTX 25 mg/kg i.p. days 3, 5 and 7

For `CN(Cc1cnc2nc(N)nc(N)c2n1)c1ccc(C(=O)N[C@@H](CCC(=O)O)C(=O)O)cc1` [MTX, Methotrexate], the “mediators from the DHA, n-3 DPA and EPA bioactive metabolomes including PDX, RvD1 and RvE3” value [1] was “upregulation”, the “plasma SPM concentrations” value [1] was “upregulates; also recorded: increase” and the “plasma 4S,14S-diHDHA concentration, Mean ± SEM” value ([1]; n=6) was 2.82 ± 0.56. The “plasma 5S,15S-diHETE concentration, Mean ± SEM” value ([1]; n=6) was 5.32 ± 0.43, the “plasma 7S,14S-diHDHA concentration, Mean ± SEM” value ([1]; n=6) was 0.00 ± 0.00 and the “plasma 10S,17S-diHDPA concentration, Mean ± SEM” value ([1]; n=6) was 0.55 ± 0.16. For the same molecule, the “plasma 13,14-dehydro-15-oxo-LXA4 concentration, Mean ± SEM” value ([1]; n=6) was 82.74 ± 32.78, the “plasma 14-oxo-MaR1 concentration, Mean ± SEM” value ([1]; n=6) was 0.00 ± 0.00 and the “plasma 14S-diHDPA concentration, Mean ± SEM” value ([1]; n=6) was 2.04 ± 0.41. The “plasma 15-oxo-LXA4 concentration, Mean ± SEM” value ([1]; n=6) was 3.78 ± 0.56, the “plasma 15R-LXB4 concentration, Mean ± SEM” value ([1]; n=6) was 2.13 ± 0.45 and the “plasma 17R-PD1 concentration, Mean ± SEM” value ([1]; n=6) was 0.96 ± 0.39. For the same molecule, the “plasma 17R-RvD1 concentration, Mean ± SEM” value ([1]; n=6) was 7.50 ± 1.97, the “plasma 17R-RvD3 concentration, Mean ± SEM” value ([1]; n=6) was 2.68 ± 0.67 and the “plasma 22-OH-MaR1 concentration, Mean ± SEM” value ([1]; n=6) was 18.44 ± 4.31. The “plasma 22-OH-PD1 concentration, Mean ± SEM” value ([1]; n=6) was 7.86 ± 2.61, the “plasma LXA4 concentration, Mean ± SEM” value ([1]; n=6) was 0.55 ± 0.10 and the “plasma LXB4 concentration, Mean ± SEM” value ([1]; n=6) was 13.42 ± 2.93. The “plasma MaR1 concentration, Mean ± SEM” value ([1]; n=6) was 24.53 ± 3.12, the “plasma MaR1n-3 DPA concentration, Mean ± SEM” value ([1]; n=6) was 1.09 ± 0.29 and the “plasma MaR2 concentration, Mean ± SEM” value ([1]; n=6) was 0.00 ± 0.00. For the same molecule, the “plasma MaR2n-3 DPA concentration, Mean ± SEM” value ([1]; n=6) was 7.97 ± 0.87, the “plasma PD1 concentration, Mean ± SEM” value ([1]; n=6) was 2.11 ± 0.24 and the “plasma PD1n-3 DPA concentration, Mean ± SEM” value ([1]; n=6) was 0.34 ± 0.10. The “plasma PD2n-3 DPA concentration, Mean ± SEM” value ([1]; n=6) was 3.01 ± 1.23, the “plasma PDx concentration, Mean ± SEM” value ([1]; n=6) was 1.55 ± 0.22 and the “plasma RvD1 concentration, Mean ± SEM” value ([1]; n=6) was 9.09 ± 1.13. The “plasma RvD1n-3 DPA concentration, Mean ± SEM” value ([1]; n=6) was 5.43 ± 1.10, the “plasma RvD2 concentration, Mean ± SEM” value ([1]; n=6) was 0.32 ± 0.13 and the “plasma RvD2n-3 DPA concentration, Mean ± SEM” value ([1]; n=6) was 3.58 ± 1.16. For the same molecule, the “plasma RvD3 concentration, Mean ± SEM” value ([1]; n=6) was 3.57 ± 1.38, the “plasma RvD4 concentration, Mean ± SEM” value ([1]; n=6) was 1.44 ± 0.59 and the “plasma RvD5 concentration, Mean ± SEM” value ([1]; n=6) was 1.05 ± 0.22. The “plasma RvD5n-3 DPA concentration, Mean ± SEM” value ([1]; n=6) was 1.26 ± 0.24, the “plasma RvD6 concentration, Mean ± SEM” value ([1]; n=6) was 1.07 ± 0.21 and the “plasma RvE1 concentration, Mean ± SEM” value ([1]; n=6) was 1.15 ± 0.32. The “plasma RvE2 concentration, Mean ± SEM” value ([1]; n=6) was 3.82 ± 1.15, the “plasma RvE3 concentration, Mean ± SEM” value ([1]; n=6) was 4.49 ± 0.23 and the “plasma RvT1 concentration, Mean ± SEM” value ([1]; n=6) was 9.18 ± 2.50. For the same molecule, the “plasma RvT2 concentration, Mean ± SEM” value ([1]; n=6) was 1.63 ± 0.35, the “plasma RvT3 concentration, Mean ± SEM” value ([1]; n=6) was 0.60 ± 0.24 and the “plasma RvT4 concentration, Mean ± SEM” value ([1]; n=6) was 0.36 ± 0.15. For the same molecule, the disease activity [2, 3] was “no longer regulated”, the weight loss [2, 3] was “no longer regulated” and the “peripheral blood and circulating eicosanoid concentrations” value ([2]; Alox15-/- mice, day 8, LC-MS/MS) was “lost and no longer regulated”. For the same molecule, the leukocyte trafficking ([2]; Alox15-/- mice, day 8, flow cytometry) was “no longer regulated” and the “protective actions of MTX” value ([2]; mice lacking the ALOX15 enzyme) was “lost”.
